According to a melting point compilation (Tetko et al.; mined from patent text by program, amines drawn as free bases though some values may be those of a salt):

| SMILES | melting point |
| --- | --- |
| C[C@@H](NC(=O)c1c[nH]c2ncc(-c3nn(C)c4cc(F)ccc34)nc12)C1(C#N)CCCC1 | 300 to 315 °C |
| CC(=O)c1ccc(NC(=O)c2ccc(C3OCC(SC(C)C(O)(Cn4cncn4)c4ccc(F)cc4F)CO3)cc2)cc1 (centres undefined) | 171 °C |
| CCOC(=O)c1ccc(I)cc1N | 51 to 53 °C |
| O=C(CCl)NCc1c(O)c(I)cc2c1CCCC2 | 119 to 125 °C |
| N#Cc1ccccc1N=Nc1ccc(O)cc1 | 201 to 203 °C |
| COC(=O)c1ccc(Oc2cc3c(cc2C)C(C)(C)CCC3(C)C)cc1 | 133 to 135 °C |
| Cc1c(C)c2c(c(C)c1N)CC(C)(CN1CCN(c3ccccc3)CC1)O2 (centres undefined) | 94 to 95 °C |
| CCOc1cc(-c2nnc3c4ccccc4c(OCc4cn(C)cn4)nn23)no1 | 189 to 190 °C |
| c1cn2ccnc2c(N2CCOCC2)n1 | 127 °C |
| CCc1nc2c(cnn2CC)c(NC2CCOCC2)c1CNC(=O)c1cccc(C(=O)NCc2ccc(OC)c(-c3cccc(CN4CC5CC4CN5)c3)c2)c1 (centres undefined) | 129 to 131 °C |
| CCCCCCCCCCCCCCCCOCC(O)CN1CCC(C#N)(c2ccccc2)CC1 (centres undefined) | 69 to 70 °C |
| CCCCCCCCCCCCc1ccc2nc3c(c(Cl)c2c1)CCCC3 | 36 to 38 °C |
| COc1c(C)cc(C2=C(c3ccc(S(C)(=O)=O)cc3)OC(C)(C)C2=O)cc1C | 130 to 131 °C |
| Cc1cc(C)n(-c2nc(Nc3ccc(Cl)cc3)c3ccccc3n2)n1 | 209 to 211 °C |
| CCOC(=O)C(NC(=O)NC)C(=O)OCC | 139 °C |
| CCc1ccc2c(c1)OC1(O)c3cccc([N+](=O)[O-])c3C(=O)C21O (centres undefined) | 110 to 120 °C |
| CCCCCCCCCCCCc1c[nH]c2cc(C(=O)O)ccc12 | 181 to 184 °C |
| CC1(C)CC(N(C=O)C2CCCCC2)CC(C)(C)N1 | 105 °C |
| CC(C)(C)CC(=O)NCc1ccc2c(c1)C(=O)N(C1CCC(=O)NC1=O)C2=O (centres undefined) | 232 to 234 °C |
| O=C(Nc1cccnc1)c1cccc(-c2ccc3c(c2)C(Oc2ccc(Cl)cc2Cl)CC3)c1 (centres undefined) | 188 to 189 °C |
| Ic1ccc(OC2CCCCO2)cc1 (centres undefined) | 66 °C |
| COCOc1cccc2c(=O)[nH]c(CCCCN(C)C)cc12 | 109 to 111 °C |
| CN(Cc1cc2c3c(c1)c(=O)c(C(=O)NCc1ccc(F)cc1)cn3CC(=O)N2C)C[C@@H](O)c1cc2ccccc2o1 | 94 to 96 °C |
| NS(=O)(=O)c1ccc(-n2nc(C(F)(F)F)cc2-c2nc3ccc(Cl)cc3s2)cc1 | 254 to 255 °C |
| C=C(C1=C(CCC(=O)OC)C(=O)CC1O)c1ccccc1 (centres undefined) | 80 °C |

| SMILES | melting point |
| --- | --- |
| c1ccc(CN2CCC3(CC(c4ccccc4)=NO3)C2)cc1 (centres undefined) | 31 to 40 °C |
| OC1(c2cccc(C(F)(F)F)c2)CCN(CCCC2(c3ccc(F)cc3F)OCCO2)CC1 | 90 to 93 °C |
| O=C1COc2ccc(C3=Nc4ccccc4SC3c3ccc(Cl)cc3)cc2N1 (centres undefined) | 153 to 155 °C |
| COc1ccc(NC(=O)N(C)Cc2cccc3c2CN(C2CCC(=O)NC2=O)C3=O)cc1 (centres undefined) | 245 to 247 °C |
| CC(C)c1ccc(N(Cc2ccc(N(C)C)cc2)C(=O)C2CCCc3ccc(C(C)C)cc32)cc1 (centres undefined) | 123 to 125 °C |
| Cc1c(-c2ccccc2)nn(C)c1C(=O)O | 161 to 163 °C |
| CCC1(CC)c2cc(CO)c(CO)cc2C(CC)(CC)N1Cc1ccccc1 | 155 to 158 °C |
| Cc1ccc(Oc2ccccc2-n2cncn2)c(O)c1 | 132 to 133 °C |
| CC(=O)c1ccccc1C(O)=S | 127 to 129 °C |
| CNC(=O)N1N=C(c2ccc(N)c(C)c2)c2cc(Cl)ccc2C=C1C | 210 to 212 °C |
| C#CCCCCOc1cc(/C=C/C(=O)Nc2ccccc2C(=O)O)ccc1OC | 135 to 137 °C |
| CSC(=C[N+](=O)[O-])NCCSCc1nccs1 | 63 to 64 °C |
| COC(=O)c1ccc(COC(C)=O)nc1C1=NC(C)(C(C)C)C(=O)N1C(C)=O (centres undefined) | 111 to 112 °C |
| Clc1cccc(Cl)c1Cn1c(-c2ccc3c(c2)OCO3)nc2ccccc21 | 187 to 189 °C |
| CCc1[nH]nc(C(=O)NC2CCCC2)c1[N+](=O)[O-] | 156 to 157 °C |
| COC(=O)c1nc2n(c1C(=O)OC)-c1ccc(Cl)cc1C(c1ccccc1F)=NC2 | 206 to 207 °C |
| CN(C)c1cccc(Oc2ccccc2N2CCN(CCCc3c[nH]c4ccccc34)CC2)c1 | 156 to 162 °C |
| Cc1cccc(-c2nc3ccccn3c2-c2ccnc(-c3ccc(NS(=O)(=O)C(F)(F)F)cc3)c2)n1 | 135 °C |
| CCOC1CC2(C)C(CCC3C2C(=NO)CC2(C)C3CCC23OCCO3)CC1O (centres undefined) | 136 to 140 °C |
| O=C1c2ccc(Cl)cc2C(=O)C(O)(O)C1(O)O | 134 to 136 °C |
| CC1COCc2nc3c(N)nc4ccc(OCc5ccccc5)cc4c3n21 (centres undefined) | 100 to 120 °C |
| CC(=O)O[C@@H]1OCC[C@@H]1NC(=O)[C@H](CC(C)C)NC(=O)Nc1cccc2ccccc12 | 196 to 198 °C |
| Cc1cc(Oc2c(Cl)cc(C(F)(F)F)cc2Cl)nn1C(=O)NCCBr | 106 to 107 °C |
| Cn1c(=O)[nH]c2nc(C(F)(F)F)n(Cc3ccccc3)c2c1=O | 211 to 213 °C |
| COCCOc1cc(N(C)S(=O)(=O)c2cccs2)c2[nH]c(C3=NCC(CC(=O)O)S3)cc2c1 (centres undefined) | 113 to 114 °C |

| SMILES | melting point |
| --- | --- |
| Cc1c(S(=O)(=O)c2ccc(=O)[nH]n2)oc2ccc(Cl)cc12 | 247 to 248 °C |
| COc1cc(CC(=O)O)ccc1OCCNC(=O)C1Cc2ccccc2N1S(=O)(=O)c1ccc(-c2cccc(C(F)(F)F)c2)cc1 (centres undefined) | 89 to 98 °C |
| CCCCn1c(=O)c2nn(S(=O)(=O)c3c(Cl)cc(Cl)cc3Cl)cc2n(CCCC)c1=O | 89 to 92 °C |
| COc1ccc(C2(O)c3cc(NC(=O)CC(C)(C)C)c(C)c(C)c3OC2(C)C)cc1 (centres undefined) | 110 to 111 °C |
| COC(=O)CNc1ccc(CCNC(=O)c2ccc(C#N)cc2)cc1 | 161 to 162 °C |
| CS(=O)(=O)Nc1ccc(C(=O)NC(=O)N2CCC(Oc3ccc(Cl)cc3)CC2)cc1 | 79 °C |
| CS(=O)(=O)c1ccc(C(CC2CCCC2)C(=O)Nc2nccs2)cc1S(C)(=O)=O (centres undefined) | 104 to 107 °C |
| COC1C(OC(=O)NC(=O)CCl)CCC(O)(CSC)C1C1(C)OC1CC=C(C)C (centres undefined) | 101 to 102 °C |
| COC(=O)CN(NC(N)=O)c1cc(C)cc(C)c1 | 139 to 141 °C |
| CCOc1nn(Cc2ccc(OCCc3ccc(CC)cn3)cc2)cc1CCC(=O)O | 89 to 90 °C |
| O=C(c1ccc(F)cc1)C1CCN(C2CN(Cc3ccncc3)CCC2O)CC1 (centres undefined) | 182 °C |
| Cn1cc(-c2ccccc2S(N)(=O)=O)cn1 | 183 to 186 °C |
| O=C(COc1ccc(Cl)cc1)N[C@@H](Cc1ccccc1)C(=O)CSCc1ccco1 | 95 to 98 °C |
| Cc1cc(O)c2c(c1O)C(=O)c1ccccc1C2=O | 177 to 178 °C |
| O=C(O)c1ccc(/C=C/c2ccc3c(=O)[nH]ncc3c2)cc1 | > 345 °C |
| O=C(O)c1c(-c2ccc(Cl)c(Cl)c2)csc1N1C(=O)c2ccccc2C1=O | 198 to 199 °C |
| CC1(C)Oc2ccc(C#N)cc2C(n2nc(-c3c(-c4ccccc4)nn4ccccc34)ccc2=O)C1O (centres undefined) | 209 to 210 °C |
| CCCn1c(=O)c2[nH]c(/C=C/c3cccc(Cl)c3)nc2n(CCC)c1=O | 259 °C |
| O=C1COc2cc(F)c([N+](=O)[O-])cc2N1 | 200 to 202 °C |
| CC(C)(O)C1COCc2nc3c(N)nc4ccccc4c3n21 (centres undefined) | 216 to 217 °C |
| CC(C)(C)OC(=O)N1CCC(CC[C@@H]2CCCNC2=O)CC1 | 110 to 111 °C |
| CSc1ccc(NC(=N)c2ccc(C(F)(F)F)cc2)cc1 | 144 to 146 °C |
| CC(=O)N1CCc2nc(Nc3nc(-c4ccccc4)cs3)nc(-c3ccccc3)c2C1 | 130 to 132 °C |
| Cc1ccc(C(O)C(=O)c2ccc(Br)cc2)cc1 (centres undefined) | 80 to 82 °C |
| COC(=O)CCC(=O)Nc1cccc(O)c1 | 144 to 146 °C |

| SMILES | melting point |
| --- | --- |
| CC(=O)c1ccc(NS(C)(=O)=O)c(Br)c1 | 124 to 126 °C |
| O=C(NC1CCCCC1)c1ccc(CO)cc1 | 185 °C |
| C#CCOC(=O)C1=C(C)NC(C)=C(C(=O)OCC)C1c1ccccc1C(F)(F)F (centres undefined) | 130 °C |
| Nc1ccc(F)c(NC(=O)C(F)(F)F)c1 | 116 to 118 °C |
| COC(=O)c1c[nH]c(C(=O)c2cc(OC)cc(OC)c2)c1 | 115 to 120 °C |
| Cc1ccc(S(=O)(=O)N(C)c2ccccc2[N+](=O)[O-])cc1 | 132 °C |
| C#CCN(Cc1cc2c(=O)n(CCN(C)C)c(CN3CCCCC3)nc2cc1Cl)c1ccc(C(=O)NCc2cccnc2)cc1 | 90 to 93 °C |
| COC(=O)c1ccc(Cn2c(C)nc3ccccc32)c2ccccc12 | 207 to 208 °C |
| CC(C)CC1C(=O)NCCN1Cc1ccccc1 (centres undefined) | 126 to 127 °C |
| COC(=O)C1NC(c2ccc(Cl)cc2)C/C(=N\OS(C)(=O)=O)C1(Cl)Cl (centres undefined) | 60 to 62 °C |
| O=C(O)c1cc(COC2CCCCO2)ccc1COC1CCCCO1 (centres undefined) | 107 to 108 °C |
| CC(=O)OC(C)c1ccc2cc(OCc3ccccc3)ccc2c1 (centres undefined) | 97 to 98 °C |
| CCN(O)C(=O)Cc1ccc2c(c1)C(=O)c1ccccc1CO2 | 119 to 121 °C |
| Cc1c(N2CCC(N(C)C)C(C)C2)c(F)cc2c(=O)c(C(=O)O)cn(C3CC3)c12 (centres undefined) | 221 °C |
| CC#CNC(=O)NC(=NC(=O)NCCCCCCCC)SC | 123 to 125 °C |
| CSC1=Nc2c(C)ccnc2N(C2CC2)c2ncccc21 | 173 to 177 °C |
| Cc1ccc(-c2ccccc2C(=O)NCc2ccc([N+](=O)[O-])cc2)cc1 | 153 to 154 °C |
| CC(C)c1cccc(CC(=O)O)c1OCCCc1cn(-c2ccc(C(F)(F)F)cn2)nc1C(C)C | 108 to 109 °C |
| Cc1nc(Br)n(C)c1-c1nc(C2CC2)no1 | 81 °C |
| C#CCn1ccc(CO)c1C(F)(F)F | 63 °C |
| COc1cc(-c2ccccc2)nc(-c2ccc(CBr)cc2)n1 | 98 to 100 °C |
| O=C(O)CCNC(=O)C(=Cc1ccc(-c2ccccc2)cc1)CS | 125 °C |
| O=c1cc(-c2ccc(O)c(Cl)c2)oc2ncccc12 | 259 to 262 °C |
| Cc1cc(Cl)cc(NC(=O)Cc2ccc(O)cc2)c1 | 176 to 178 °C |
